Assay results reported in article PMC7026418, “The kinase polypharmacology landscape of clinical PARP inhibitors” (Scientific Reports, 2020).
Where two headings read alike, the source gives them in different places. Blank lines part the entries; values can stand above or below the compound they belong to.

Tests used:
Test in all cases: biochemical
Set-up in all cases: DiscoveRx KINOMEscan active site-directed competition binding; percent of control kinase bound to immobilised ligand
DAPK3 = DAPK3 (Homo sapiens, UniProt O43293)
Sequence of DAPK3 (O43293 whole entry): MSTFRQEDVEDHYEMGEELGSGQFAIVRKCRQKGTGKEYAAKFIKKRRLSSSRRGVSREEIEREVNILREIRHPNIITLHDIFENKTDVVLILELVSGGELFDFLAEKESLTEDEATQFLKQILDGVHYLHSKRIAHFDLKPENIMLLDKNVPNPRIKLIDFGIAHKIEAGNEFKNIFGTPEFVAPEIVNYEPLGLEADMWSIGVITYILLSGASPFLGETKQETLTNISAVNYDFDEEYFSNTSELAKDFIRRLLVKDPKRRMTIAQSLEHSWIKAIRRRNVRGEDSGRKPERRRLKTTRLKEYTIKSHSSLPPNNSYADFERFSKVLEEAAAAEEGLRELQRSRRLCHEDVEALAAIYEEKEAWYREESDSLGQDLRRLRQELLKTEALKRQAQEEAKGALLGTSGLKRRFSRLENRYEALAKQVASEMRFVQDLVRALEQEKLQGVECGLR

PKMYT1 = biological target: T1, PKMYT1 (Homo sapiens, UniProt Q99640)
T1 sequence (Q99640 1-499): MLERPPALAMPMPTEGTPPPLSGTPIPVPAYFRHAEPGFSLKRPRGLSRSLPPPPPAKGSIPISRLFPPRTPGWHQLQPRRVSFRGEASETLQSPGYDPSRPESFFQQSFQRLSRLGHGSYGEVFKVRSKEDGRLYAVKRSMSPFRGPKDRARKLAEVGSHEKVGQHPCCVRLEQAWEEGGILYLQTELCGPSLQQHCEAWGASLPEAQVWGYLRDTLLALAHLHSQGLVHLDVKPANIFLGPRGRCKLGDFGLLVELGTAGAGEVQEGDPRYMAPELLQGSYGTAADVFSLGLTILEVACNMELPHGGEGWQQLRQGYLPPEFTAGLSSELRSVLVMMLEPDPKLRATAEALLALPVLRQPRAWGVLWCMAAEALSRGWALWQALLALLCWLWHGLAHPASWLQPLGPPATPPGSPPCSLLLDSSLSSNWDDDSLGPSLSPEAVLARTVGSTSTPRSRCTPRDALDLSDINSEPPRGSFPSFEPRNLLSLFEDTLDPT

ACVRL1 = ACVRL1 (Homo sapiens, UniProt P37023)
Sequence of ACVRL1 (P37023 whole entry): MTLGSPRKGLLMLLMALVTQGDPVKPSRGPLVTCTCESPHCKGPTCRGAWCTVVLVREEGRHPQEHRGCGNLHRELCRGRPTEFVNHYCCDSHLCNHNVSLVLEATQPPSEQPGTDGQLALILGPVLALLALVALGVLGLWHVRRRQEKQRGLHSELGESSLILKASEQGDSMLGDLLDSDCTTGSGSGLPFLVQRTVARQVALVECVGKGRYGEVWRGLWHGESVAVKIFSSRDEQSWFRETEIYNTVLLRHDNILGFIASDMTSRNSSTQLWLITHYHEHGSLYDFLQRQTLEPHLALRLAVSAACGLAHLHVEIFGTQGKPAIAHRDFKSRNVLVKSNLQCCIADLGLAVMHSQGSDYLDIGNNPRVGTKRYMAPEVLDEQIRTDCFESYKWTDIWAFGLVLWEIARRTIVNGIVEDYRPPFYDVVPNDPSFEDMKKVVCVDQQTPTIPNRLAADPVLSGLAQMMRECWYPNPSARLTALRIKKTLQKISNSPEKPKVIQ

MINK = biological target: T2, MINK (Homo sapiens, UniProt Q8N4C8)
T2 construct: gene MINK1
T2 sequence (Q8N4C8 whole entry): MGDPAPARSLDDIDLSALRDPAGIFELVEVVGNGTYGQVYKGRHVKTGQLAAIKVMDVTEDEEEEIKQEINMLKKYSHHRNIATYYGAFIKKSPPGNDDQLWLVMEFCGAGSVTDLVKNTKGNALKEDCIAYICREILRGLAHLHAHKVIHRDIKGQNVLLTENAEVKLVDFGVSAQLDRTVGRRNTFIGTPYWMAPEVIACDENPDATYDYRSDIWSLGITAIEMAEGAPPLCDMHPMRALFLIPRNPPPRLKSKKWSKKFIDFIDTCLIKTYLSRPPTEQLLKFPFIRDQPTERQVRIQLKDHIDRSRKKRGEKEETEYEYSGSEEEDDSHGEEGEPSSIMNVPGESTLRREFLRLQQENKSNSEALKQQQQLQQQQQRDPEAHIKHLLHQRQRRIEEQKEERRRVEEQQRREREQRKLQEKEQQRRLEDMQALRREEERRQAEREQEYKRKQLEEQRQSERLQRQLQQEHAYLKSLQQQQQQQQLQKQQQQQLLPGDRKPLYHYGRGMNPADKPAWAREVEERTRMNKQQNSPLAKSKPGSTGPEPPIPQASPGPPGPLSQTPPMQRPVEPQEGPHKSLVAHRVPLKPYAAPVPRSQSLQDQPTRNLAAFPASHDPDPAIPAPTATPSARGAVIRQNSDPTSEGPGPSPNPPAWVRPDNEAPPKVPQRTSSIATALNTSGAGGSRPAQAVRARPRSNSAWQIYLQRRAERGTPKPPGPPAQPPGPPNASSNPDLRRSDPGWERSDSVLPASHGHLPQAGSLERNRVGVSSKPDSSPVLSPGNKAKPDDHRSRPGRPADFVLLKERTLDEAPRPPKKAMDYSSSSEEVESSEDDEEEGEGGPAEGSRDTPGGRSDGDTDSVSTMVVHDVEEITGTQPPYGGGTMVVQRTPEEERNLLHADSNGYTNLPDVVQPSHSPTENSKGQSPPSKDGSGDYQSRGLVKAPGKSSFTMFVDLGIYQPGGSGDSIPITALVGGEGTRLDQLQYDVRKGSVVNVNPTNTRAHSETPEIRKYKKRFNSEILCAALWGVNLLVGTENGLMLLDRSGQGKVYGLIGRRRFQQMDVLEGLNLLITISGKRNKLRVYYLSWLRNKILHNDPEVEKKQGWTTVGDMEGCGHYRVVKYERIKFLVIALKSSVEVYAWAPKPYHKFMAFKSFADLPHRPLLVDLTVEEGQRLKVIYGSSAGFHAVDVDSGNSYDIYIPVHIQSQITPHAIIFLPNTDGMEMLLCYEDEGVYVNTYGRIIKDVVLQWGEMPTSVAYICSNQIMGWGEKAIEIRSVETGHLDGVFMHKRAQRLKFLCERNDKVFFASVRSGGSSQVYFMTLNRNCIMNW

CAMK1B = biological target: T3, CAMK1B (Homo sapiens, UniProt Q6P2M8)
T3 construct: gene PNCK
T3 sequence (Q6P2M8 whole entry): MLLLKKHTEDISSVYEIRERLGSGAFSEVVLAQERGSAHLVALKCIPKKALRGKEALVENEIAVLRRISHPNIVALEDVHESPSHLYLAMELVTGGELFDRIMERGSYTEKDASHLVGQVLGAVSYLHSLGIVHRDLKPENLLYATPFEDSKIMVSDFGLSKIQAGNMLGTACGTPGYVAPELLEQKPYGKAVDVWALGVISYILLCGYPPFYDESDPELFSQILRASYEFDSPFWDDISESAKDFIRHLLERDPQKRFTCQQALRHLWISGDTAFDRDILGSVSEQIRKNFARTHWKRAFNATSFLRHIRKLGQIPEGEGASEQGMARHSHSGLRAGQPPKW

[1] = biological target: T4, RPS6KA4(Kin.Dom.1-N-terminal) (Homo sapiens, UniProt O75676)
T4 construct: Kin.Dom.1-N-terminal
T4 sequence (O75676 whole entry): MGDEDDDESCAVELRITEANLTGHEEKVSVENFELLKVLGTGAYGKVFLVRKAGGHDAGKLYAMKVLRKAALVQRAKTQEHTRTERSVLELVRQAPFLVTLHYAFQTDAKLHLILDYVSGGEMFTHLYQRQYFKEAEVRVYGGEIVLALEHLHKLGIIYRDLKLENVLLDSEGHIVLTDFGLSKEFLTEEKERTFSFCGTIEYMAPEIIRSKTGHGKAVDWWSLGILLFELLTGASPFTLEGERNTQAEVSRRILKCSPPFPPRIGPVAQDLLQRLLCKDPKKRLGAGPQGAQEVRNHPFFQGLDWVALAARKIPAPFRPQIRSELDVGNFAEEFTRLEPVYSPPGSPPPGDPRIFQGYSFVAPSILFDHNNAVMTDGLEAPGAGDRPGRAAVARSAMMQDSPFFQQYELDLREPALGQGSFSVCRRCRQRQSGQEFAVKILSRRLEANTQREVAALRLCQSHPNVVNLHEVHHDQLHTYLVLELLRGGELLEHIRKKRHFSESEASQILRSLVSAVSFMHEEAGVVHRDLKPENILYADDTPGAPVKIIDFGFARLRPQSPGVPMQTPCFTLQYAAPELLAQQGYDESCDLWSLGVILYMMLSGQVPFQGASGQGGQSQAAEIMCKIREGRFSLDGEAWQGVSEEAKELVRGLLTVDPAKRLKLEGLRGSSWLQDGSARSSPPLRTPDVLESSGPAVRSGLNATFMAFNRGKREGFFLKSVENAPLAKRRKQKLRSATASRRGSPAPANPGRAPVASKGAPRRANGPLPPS

TSSK1B = biological target: T5, TSSK1B (Homo sapiens, UniProt Q9BXA7)
T5 sequence (Q9BXA7 1-367): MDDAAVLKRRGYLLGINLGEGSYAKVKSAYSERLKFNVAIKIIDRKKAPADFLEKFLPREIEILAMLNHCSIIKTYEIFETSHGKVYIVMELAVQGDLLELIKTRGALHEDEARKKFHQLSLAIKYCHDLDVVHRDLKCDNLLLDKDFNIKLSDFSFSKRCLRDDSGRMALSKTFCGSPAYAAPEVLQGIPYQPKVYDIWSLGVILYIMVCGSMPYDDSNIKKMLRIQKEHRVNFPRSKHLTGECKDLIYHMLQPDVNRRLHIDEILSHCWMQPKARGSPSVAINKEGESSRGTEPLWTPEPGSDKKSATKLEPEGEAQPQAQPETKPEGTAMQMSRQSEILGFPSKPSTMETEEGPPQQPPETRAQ

RIOK1 = biological target: T6, RIOK1 (Homo sapiens, UniProt Q9BRS2)
T6 sequence (Q9BRS2 1-568): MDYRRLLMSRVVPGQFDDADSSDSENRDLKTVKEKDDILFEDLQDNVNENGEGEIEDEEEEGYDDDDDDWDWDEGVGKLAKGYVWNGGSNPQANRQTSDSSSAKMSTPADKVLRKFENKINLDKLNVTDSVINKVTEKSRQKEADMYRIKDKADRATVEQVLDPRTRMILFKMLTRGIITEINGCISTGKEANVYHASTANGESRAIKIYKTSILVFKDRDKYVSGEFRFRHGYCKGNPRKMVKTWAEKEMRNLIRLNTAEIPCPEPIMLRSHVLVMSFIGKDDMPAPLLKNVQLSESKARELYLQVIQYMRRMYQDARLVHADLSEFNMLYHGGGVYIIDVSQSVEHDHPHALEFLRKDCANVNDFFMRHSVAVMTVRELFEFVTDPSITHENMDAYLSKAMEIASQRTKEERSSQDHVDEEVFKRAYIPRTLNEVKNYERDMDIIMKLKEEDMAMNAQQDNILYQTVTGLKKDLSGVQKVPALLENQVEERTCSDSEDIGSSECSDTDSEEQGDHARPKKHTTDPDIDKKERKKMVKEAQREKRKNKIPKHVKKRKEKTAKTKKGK

PCTK2 = biological target: T7, PCTK2 (Homo sapiens, UniProt Q00537)
T7 construct: gene CDK17
T7 sequence (Q00537 whole entry): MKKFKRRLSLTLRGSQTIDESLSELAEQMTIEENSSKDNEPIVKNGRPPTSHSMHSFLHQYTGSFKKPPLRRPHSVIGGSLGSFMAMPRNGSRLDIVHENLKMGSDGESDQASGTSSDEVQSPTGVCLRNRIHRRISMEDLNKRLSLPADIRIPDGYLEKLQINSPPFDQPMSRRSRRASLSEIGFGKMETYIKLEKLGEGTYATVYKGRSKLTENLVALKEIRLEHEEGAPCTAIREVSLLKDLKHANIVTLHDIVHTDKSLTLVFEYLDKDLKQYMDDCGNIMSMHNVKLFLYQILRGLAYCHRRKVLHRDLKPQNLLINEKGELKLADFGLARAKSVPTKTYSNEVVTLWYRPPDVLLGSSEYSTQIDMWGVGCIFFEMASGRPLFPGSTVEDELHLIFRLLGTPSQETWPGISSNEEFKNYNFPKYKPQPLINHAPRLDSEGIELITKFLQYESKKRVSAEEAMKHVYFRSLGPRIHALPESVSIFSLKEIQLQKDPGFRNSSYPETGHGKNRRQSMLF

CSNK1A1L = biological target: T8, CSNK1A1L (Homo sapiens, UniProt Q8N752)
T8 sequence (Q8N752 1-337): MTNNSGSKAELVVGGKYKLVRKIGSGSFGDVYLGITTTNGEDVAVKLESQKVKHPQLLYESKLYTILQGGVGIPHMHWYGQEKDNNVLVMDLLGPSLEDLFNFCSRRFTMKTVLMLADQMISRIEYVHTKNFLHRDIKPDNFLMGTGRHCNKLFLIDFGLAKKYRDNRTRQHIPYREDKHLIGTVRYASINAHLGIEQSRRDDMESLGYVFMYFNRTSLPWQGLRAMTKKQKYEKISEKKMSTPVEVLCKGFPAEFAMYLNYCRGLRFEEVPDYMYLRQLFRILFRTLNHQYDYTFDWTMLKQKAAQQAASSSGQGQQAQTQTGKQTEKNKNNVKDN

PCTK1 = biological target: T9, PCTK1 (Homo sapiens, UniProt Q00536)
T9 construct: gene CDK16
T9 sequence (Q00536 whole entry): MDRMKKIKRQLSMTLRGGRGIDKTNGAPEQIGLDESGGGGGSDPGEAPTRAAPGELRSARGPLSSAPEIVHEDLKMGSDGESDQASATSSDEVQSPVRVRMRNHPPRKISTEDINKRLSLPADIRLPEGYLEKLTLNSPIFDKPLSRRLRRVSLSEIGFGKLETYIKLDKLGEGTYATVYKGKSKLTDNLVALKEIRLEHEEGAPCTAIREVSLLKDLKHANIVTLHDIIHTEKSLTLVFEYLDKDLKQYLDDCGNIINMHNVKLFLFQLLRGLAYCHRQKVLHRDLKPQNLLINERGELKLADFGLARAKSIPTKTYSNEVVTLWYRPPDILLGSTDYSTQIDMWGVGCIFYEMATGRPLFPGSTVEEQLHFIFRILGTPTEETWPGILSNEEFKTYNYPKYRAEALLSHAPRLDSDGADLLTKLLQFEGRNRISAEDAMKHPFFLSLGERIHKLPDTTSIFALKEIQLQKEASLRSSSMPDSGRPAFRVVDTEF

[2] = read-out: Niraparib (MK-4827) / %Ctrl @ 10000nM
[3] = read-out: Olaparib / %Ctrl @ 10000nM
[4] = read-out: Rucaparib / %Ctrl @ 10000nM, binding competition, % of control
[5] = read-out: Talazoparib (BMN 673) / %Ctrl @ 10000nM

Structure (SMILES): NC(=O)c1cccc2cn(-c3ccc([C@@H]4CCCNC4)cc3)nc12 [Niraparib]
- percent of control binding at 10 µM (DAPK3; [2]): 69%
- percent of control binding at 10 µM (PKMYT1; [2]): 93%
- percent of control binding at 10 µM (ACVRL1; [2]): 98%
- percent of control binding at 10 µM (MINK; [2]): 67%
- percent of control binding at 10 µM (CAMK1B; [2]): 94%
- percent of control binding at 10 µM [1, 2]: 100%
- percent of control binding at 10 µM (TSSK1B; [2]): 65%
- percent of control binding at 10 µM (RIOK1; [2]): 95%
- percent of control binding at 10 µM (PCTK2; [2]): 73%
- percent of control binding at 10 µM (CSNK1A1L; [2]): 76%
- percent of control binding at 10 µM (PCTK1; [2]): 47%

- percent of control binding at 10 µM (DAPK3; [3]): 93%
- percent of control binding at 10 µM (PKMYT1; [3]): 100%
- percent of control binding at 10 µM (ACVRL1; [3]): 97%
- percent of control binding at 10 µM (MINK; [3]): 100%
- percent of control binding at 10 µM (CAMK1B; [3]): 97%
- percent of control binding at 10 µM [1, 3]: 100%
- percent of control binding at 10 µM (TSSK1B; [3]): 100%
- percent of control binding at 10 µM (RIOK1; [3]): 100%
- percent of control binding at 10 µM (PCTK2; [3]): 100%
- percent of control binding at 10 µM (CSNK1A1L; [3]): 99%
- percent of control binding at 10 µM (PCTK1; [3]): 99%
Structure (SMILES): O=C(c1cc(Cc2n[nH]c(=O)c3ccccc23)ccc1F)N1CCN(C(=O)C2CC2)CC1 [Olaparib]

- percent of control binding at 10 µM (DAPK3; [4]): 24%
- percent of control binding at 10 µM (PKMYT1; [4]): 100%
- percent of control binding at 10 µM (ACVRL1; [4]): 100%
- percent of control binding at 10 µM (MINK; [4]): 29%
- percent of control binding at 10 µM (CAMK1B; [4]): 100%
- percent of control binding at 10 µM [1, 4]: 100%
- percent of control binding at 10 µM (TSSK1B; [4]): 88%
- percent of control binding at 10 µM (RIOK1; [4]): 100%
- percent of control binding at 10 µM (PCTK2; [4]): 54%
- percent of control binding at 10 µM (CSNK1A1L; [4]): 86%
- percent of control binding at 10 µM (PCTK1; [4]): 13%
Structure (SMILES): CNCc1ccc(-c2[nH]c3cc(F)cc4c3c2CCNC4=O)cc1 [Rucaparib]

- percent of control binding at 10 µM (DAPK3; [5]): 87%
- percent of control binding at 10 µM (PKMYT1; [5]): 100%
- percent of control binding at 10 µM (ACVRL1; [5]): 84%
- percent of control binding at 10 µM (MINK; [5]): 100%
- percent of control binding at 10 µM (CAMK1B; [5]): 100%
- percent of control binding at 10 µM [1, 5]: 61%
- percent of control binding at 10 µM (TSSK1B; [5]): 94%
- percent of control binding at 10 µM (RIOK1; [5]): 100%
- percent of control binding at 10 µM (PCTK2; [5]): 94%
- percent of control binding at 10 µM (CSNK1A1L; [5]): 100%
- percent of control binding at 10 µM (PCTK1; [5]): 86%
Structure (SMILES): Cn1ncnc1[C@H]1c2n[nH]c(=O)c3cc(F)cc(c23)N[C@@H]1c1ccc(F)cc1 [Talazoparib]
